Assay results as given in US7491518B2, “Method of elevating yield of oligosaccharides containing α-galactosyl and anti-candida compositions” (Amano Enzyme Inc., priority 2000, dated 2009).

Experiments:
Candida microorganism = settings: in vitro and in vivo; cited from earlier work
[1] = system: Candida albicans IFM40009; test: Persistence of orally administered Candida microorganism in the intestinal tract of mice (viable cell count in cecum and colon); format: in vivo; settings: mouse, 100 mg/animal oral once a day for two weeks, 1 week after forcible administration of Candida suspension
Text: A Candida microorganism was given forcibly via an oral administration to a mouse on diet with the oligosacchride containing α-galactosyl obtained in EXAMPLE 3 to test the persistence of the Candida microorganism in an intestinal tract, whereby assessing the anti-candida effect of the oligosacchride containing α-galactosyl.
(Methods) A test mouse was a 4-week old male mouse of Crj:CD-1 (ICR) line (NIPPON CHARLES RIVER). A preliminary housing was provided to the animal for 1 week while being allowed to access a basal diet and a distilled water ad libitum. The basal diet was a solid chow for mice (MF: ORIENTAL YEAST). After the preliminary housing, the basal diet and the distilled water were given ad libitum continuously, and a control group fed with a sucrose, a positive control group fed with a raffinose, and a treatment group fed with an oligosacchride containing α-galactosyl were provided (5 animals per group) to conduct a forcible oral administration at 100 mg/animal via an oral gavage for two weeks on a once-a-day basis. […]
The viable cell of the Candida microorganism was counted by applying a Candida microorganism suspension diluted appropriately with a physiological saline onto a Candida GS (EIKEN KAGAKU) plate medium and incubating at 37° C. for 42 to 48 hours followed by counting the colonies formed. […]

[2] = cited from earlier work
[3] = biological target: toxin produced by Clostridium difficile (Clostridioides difficile, UniProt P16154); settings: cited from earlier work
pathogenic E.coli 0157 = settings: cited from earlier work

OC[C@H]1O[C@H](OC[C@H]2O[C@H](O[C@]3(CO)O[C@H](CO)[C@@H](O)[C@@H]3O)[C@H](O)[C@@H](O)[C@@H]2O)[C@H](O)[C@@H](O)[C@H]1O [raffinose]
effects on a Candida microorganism (Candida microorganism): inhibitory and eradicative effects
viable cell count of Candida microorganism in the cecum [1]: not changed
viable cell count of Candida microorganism in the colon ([1]; compared with sucrose control group): lower
effect on atopic dermatitis ([2]; in vivo): exerted an effect
side effects observed with an antifungal agent (transient exacerbation of rash, digestive organ signs) ([2]; oral administration): does not cause side effects

OC[C@H]1O[C@H](O[C@@H]2[C@@H](O)[C@@H](O)O[C@H](CO)[C@@H]2O)[C@H](O)[C@@H](O)[C@H]1O [α-1,3-galactobiose]
effect on toxin produced by Clostridium difficile [3]: neutralizing effect

OC[C@H]1O[C@H](O[C@@H]2[C@H](O)[C@@H](O)C(O)O[C@@H]2CO)[C@H](O)[C@@H](O)[C@H]1O (stereo partly drawn) [α-1,4 galactobiose]
effect on pathogenic E.coli 0157 (pathogenic E.coli 0157): inhibitory and therapeutic effect
